Experimental data from patent publication US6525001B1, “Substituted pyrimidine and pyridine herbicides” (Mid-American Commercialization Corporation, priority 1997, dated 2003).

Assays:
Format in all cases: in vivo
[1] = test system: bamyardgrass (Echinochloa crus-galli); assay: Test B flood test
Experimental: (§1) At the same time, these crop and weed species were also treated with postemergence applications of test chemicals formulated in the same manner. Plants ranged in height from 2 to 18 cm (1- to 4-leaf stage) for postemergence treatments. Plant species in the flood test consisted of rice (Oryza sativa), smallflower flatsedge (Cyperus difformis), duck salad (Heteranthera limosa) and bamyardgrass (Echinochloa crus-galli) grown to the 2-leaf stage for testing. Treated plants and controls were maintained in a greenhouse for twelve to sixteen days, after which all species were compared to controls and visually evaluated. Plant response ratings, summarized in Table B, are based on a scale of 0 to 10 where 0 is no effect and 10 is complete control. A dash (−) response means no test result.

rice (Oryza sativa) = assay: Test B flood test
Experimental: as §1

[2] = test system: duck salad (Heteranthera limosa); assay: Test B flood test
Experimental: as §1

[3] = test system: smallflower flatsedge (Cyperus difformis); assay: Test B flood test
Experimental: as §1

rape (Brassica napus) = assay: Test B pre-/postemergence; design: key: 0 is no effect; 10 is complete control
Excerpt: (§2) Seeds of bedstraw (Galium aparine), blackgrass (Alopecurus myosuroides), broadleaf signalgrass (Brachiaria decumbens), cocklebur (Xanthium strumarium), corn (Zea mays), crabgrass (Digitaria sanguinalis), giant foxtail (Setaria faberii), lambsquarters (Chenopodium album), momingglory (Ipomoea hederacea), pigweed (Amaranthus retroflexus), rape (Brassica napus), soybean (Glycine max), sugar beet (Beta vulgaris), velvetleaf (Abutilon theophrasti), wheat (Triticum aestivum), wild oat (Avena fatua) and purple nutsedge (Cyperus rotundus) tubers were planted and treated preemergence with test chemicals formulated in a non-phytotoxic solvent mixture which included a surfactant.
as §1

[4] = test system: blackgrass (Alopecurus myosuroides); assay: Test B pre-/postemergence; design: key: 0 is no effect; 10 is complete control; conditions: for Blackgrass plant response rating: Preemergence
Excerpt: as §2, §1

[5] = test system: velvetleaf (Abutilon theophrasti); assay: Test B pre-/postemergence; design: key: 0 is no effect; 10 is complete control
Excerpt: as §2, §1

[6] = test system: momingglory (Ipomoea hederacea); assay: Test B pre-/postemergence; design: key: 0 is no effect; 10 is complete control
Excerpt: as §2, §1

soybean (Glycine max) = assay: Test B pre-/postemergence; design: key: 0 is no effect; 10 is complete control
Excerpt: as §2, §1

[7] = test system: broadleaf signalgrass (Brachiaria decumbens); assay: Test B pre-/postemergence; design: key: 0 is no effect; 10 is complete control; conditions: for B. signalgrass plant response rating: Preemergence
Excerpt: as §2, §1

[8] = test system: crabgrass (Digitaria sanguinalis); assay: Test B pre-/postemergence; design: key: 0 is no effect; 10 is complete control; conditions: for Crabgrass plant response rating: Preemergence
Excerpt: as §2, §1

[9] = test system: pigweed (Amaranthus retroflexus); assay: Test B pre-/postemergence; design: key: 0 is no effect; 10 is complete control
Excerpt: as §2, §1

[10] = test system: sugar beet (Beta vulgaris); assay: Test B pre-/postemergence; design: key: 0 is no effect; 10 is complete control
Excerpt: as §2, §1

[11] = test system: giant foxtail (Setaria faberii); assay: Test B pre-/postemergence; design: key: 0 is no effect; 10 is complete control
Excerpt: as §2, §1

[12] = test system: wheat (Triticum aestivum); assay: Test B pre-/postemergence; design: key: 0 is no effect; 10 is complete control
Excerpt: as §2, §1

[13] = test system: cocklebur (Xanthium strumarium); assay: Test B pre-/postemergence; design: key: 0 is no effect; 10 is complete control; conditions: for Cocklebur plant response rating: Preemergence
Excerpt: as §2, §1

corn (Zea mays) = assay: Test B pre-/postemergence; design: key: 0 is no effect; 10 is complete control; conditions: for Corn plant response rating: Preemergence
Excerpt: as §2, §1

[14] = test system: bedstraw (Galium aparine); assay: Test B pre-/postemergence; design: key: 0 is no effect; 10 is complete control; conditions: for Bedstraw plant response rating: Preemergence
Excerpt: as §2, §1

wild oat (Avena fatua) = assay: Test B pre-/postemergence; design: key: 0 is no effect; 10 is complete control
Excerpt: as §2, §1

[15] = Rate 62 g/ha, Postemergence (flood test)
[16] = Rate 125 g/ha, Postemergence, flood test
[17] = Rate 250 g/ha, Postemergence (flood test species)
[18] = Rate 125 g/ha, Postemergence section (flood test species)
[19] = Rate 250 g/ha, Postemergence (so in the source)

SMILES: CCc1cnc(-n2cnc(C(F)(F)F)c2)nc1Cc1cccc(OC(F)(F)F)c1 [Compound 49]
- Plant response rating, Barnyardgrass [1, 15]: 5
- Plant response rating, Barnyardgrass [1, 16]: 5
- Plant response rating, Barnyardgrass [1, 17]: 6
- Plant response rating, Rice (rice (Oryza sativa); [15]): 3
- Rice plant response rating (rice (Oryza sativa); [18]): 4
- Plant response rating, Rice (rice (Oryza sativa); [17]): 5
- Plant response rating, Ducksalad [2, 15]: 4
- Plant response rating, Ducksalad [2, 16]: 4
- Plant response rating, Ducksalad [2, 17]: 4
- Plant response rating, S. Flatsedge [3, 15]: 4
- S. Flatsedge plant response rating [3, 18]: 4
- Plant response rating, S. Flatsedge [3, 17]: 9
- Plant response rating, Rape (rape (Brassica napus); Rate 62 g/ha, Postemergence): 9
- Rape plant response rating (rape (Brassica napus); Rate 62 g/ha, Preemergence): 7
- Rape plant response rating (rape (Brassica napus); Rate 125 g/ha, Postemergence): 9
- Rape plant response rating (rape (Brassica napus); Rate 125 g/ha, Preemergence): 8
- Plant response rating, Rape (rape (Brassica napus); Rate 250 g/ha, Postemergence): 9
- Plant response rating, Rape (rape (Brassica napus); [19]): 10
- Plant response rating, Blackgrass ([4]; Rate 62 g/ha, Postemergence): 5
- Blackgrass plant response rating ([4]; Rate 62 g/ha): 4
- Plant response rating, Blackgrass ([4]; Rate 125 g/ha, Postemergence): 6
- Blackgrass plant response rating ([4]; Rate 125 g/ha): 4
- Plant response rating, Blackgrass ([4]; Rate 250 g/ha, Postemergence): 6
- Plant response rating, Blackgrass [4, 19]: 6
- Plant response rating, Velvetleaf ([5]; Rate 62 g/ha, Postemergence): 8
- Velvetleaf plant response rating ([5]; Rate 62 g/ha, Preemergence): 3
- Velvetleaf plant response rating ([5]; Rate 125 g/ha, Postemergence): 8
- Plant response rating, Velvetleaf ([5]; Rate 125 g/ha, Preemergence): 8
- Plant response rating, Velvetleaf ([5]; Rate 250 g/ha, Postemergence): 9
- Plant response rating, Velvetleaf [5, 19]: 8
- Plant response rating, Morningglory ([6]; Rate 62 g/ha, Postemergence): 2
- Morningglory plant response rating ([6]; Rate 62 g/ha, Preemergence): 1
- Morningglory plant response rating ([6]; Rate 125 g/ha, Postemergence): 6
- Morningglory plant response rating ([6]; Rate 125 g/ha, Preemergence): 3
- Plant response rating, Morningglory ([6]; Rate 250 g/ha, Postemergence): 9
- Plant response rating, Morningglory [6, 19]: 4
- Plant response rating, Soybean (soybean (Glycine max); Rate 62 g/ha, Postemergence): 6
- Soybean plant response rating (soybean (Glycine max); Rate 62 g/ha, Preemergence): 0
- Soybean plant response rating (soybean (Glycine max); Rate 125 g/ha, Postemergence): 7
- Plant response rating, Soybean (soybean (Glycine max); Rate 125 g/ha, Preemergence): 1
- Plant response rating, Soybean (soybean (Glycine max); Rate 250 g/ha, Postemergence): 7
- Plant response rating, Soybean (soybean (Glycine max); [19]): 1
- Plant response rating, B. signalgrass ([7]; Rate 62 g/ha, Postemergence): 2
- B. signalgrass plant response rating ([7]; Rate 62 g/ha): 0
- Plant response rating, B. signalgrass ([7]; Rate 125 g/ha, Postemergence): 3
- B. signalgrass plant response rating ([7]; Rate 125 g/ha): 1
- Plant response rating, B. signalgrass ([7]; Rate 250 g/ha, Postemergence): 4
- Plant response rating, B. signalgrass ([7]; Rate 250 g/ha, Postemergence as printed in head r139 (second section for compounds 26-50)): 5
- Plant response rating, Crabgrass ([8]; Rate 62 g/ha, Postemergence): 5
- Crabgrass plant response rating ([8]; Rate 62 g/ha): 5
- Plant response rating, Crabgrass ([8]; Rate 125 g/ha, Postemergence): 6
- Crabgrass plant response rating ([8]; Rate 125 g/ha): 7
- Plant response rating, Crabgrass ([8]; Rate 250 g/ha, Postemergence): 9
- Plant response rating, Crabgrass [8, 19]: 9
- Plant response rating, Redroot pigweed ([9]; Rate 62 g/ha, Postemergence): 9
- Redroot pigweed plant response rating ([9]; Rate 62 g/ha, Preemergence): 8
- Redroot pigweed plant response rating ([9]; Rate 125 g/ha, Postemergence): 9
- Redroot pigweed plant response rating ([9]; Rate 125 g/ha, Preemergence): 8
- Plant response rating, Redroot pigweed ([9]; Rate 250 g/ha, Postemergence): 9
- Plant response rating, Redroot pigweed [9, 19]: 10
- Plant response rating, Sugarbeets ([10]; Rate 62 g/ha, Postemergence): 9
- Sugarbeets plant response rating ([10]; Rate 62 g/ha, Preemergence): 6
- Sugarbeets plant response rating ([10]; Rate 125 g/ha, Postemergence): 9
- Plant response rating, Sugarbeets ([10]; Rate 125 g/ha, Preemergence): 6
- Plant response rating, Sugarbeets ([10]; Rate 250 g/ha, Postemergence): 9
- Plant response rating, Sugarbeets [10, 19]: 9
- Plant response rating, Giant foxtail ([11]; Rate 62 g/ha, Postemergence): 2
- Giant foxtail plant response rating ([11]; Rate 62 g/ha, Preemergence): 5
- Giant foxtail plant response rating ([11]; Rate 125 g/ha, Postemergence): 5
- Giant foxtail plant response rating ([11]; Rate 125 g/ha, Preemergence): 8
- Plant response rating, Giant foxtail ([11]; Rate 250 g/ha, Postemergence): 5
- Plant response rating, Giant foxtail [11, 19]: 9
- Wheat plant response rating ([12]; Rate 62 g/ha, Postemergence): 4
- Wheat plant response rating ([12]; Rate 62 g/ha, Preemergence): 1
- Wheat plant response rating ([12]; Rate 125 g/ha, Postemergence): 5
- Plant response rating, Wheat ([12]; Rate 125 g/ha, Preemergence): 4
- Plant response rating, Wheat ([12]; Rate 250 g/ha, Postemergence): 5
- Plant response rating, Wheat [12, 19]: 4
- Plant response rating, Cocklebur ([13]; Rate 62 g/ha, Postemergence): 7
- Cocklebur plant response rating ([13]; Rate 62 g/ha): 0
- Plant response rating, Cocklebur ([13]; Rate 125 g/ha, Postemergence): 7
- Cocklebur plant response rating ([13]; Rate 125 g/ha): 0
- Plant response rating, Cocklebur ([13]; Rate 250 g/ha, Postemergence): 9
- Plant response rating, Cocklebur [13, 19]: 2
- Plant response rating, Corn (corn (Zea mays); Rate 62 g/ha, Postemergence): 3
- Corn plant response rating (corn (Zea mays); Rate 62 g/ha): 0
- Plant response rating, Corn (corn (Zea mays); Rate 125 g/ha, Postemergence): 3
- Corn plant response rating (corn (Zea mays); Rate 125 g/ha): 1
- Plant response rating, Corn (corn (Zea mays); Rate 250 g/ha, Postemergence): 4
- Plant response rating, Corn (corn (Zea mays); [19]): 1
- Plant response rating, Bedstraw ([14]; Rate 62 g/ha, Postemergence): 9
- Bedstraw plant response rating ([14]; Rate 62 g/ha): 4
- Bedstraw plant response rating ([14]; Rate 125 g/ha): 7
- Plant response rating, Bedstraw [14, 19]: 8
- Wild oats plant response rating (wild oat (Avena fatua); Rate 62 g/ha, Postemergence): 5
- Wild oats plant response rating (wild oat (Avena fatua); Rate 62 g/ha, Preemergence): 2
- Wild oats plant response rating (wild oat (Avena fatua); Rate 125 g/ha, Postemergence): 6
- Plant response rating, Wild oats (wild oat (Avena fatua); Rate 125 g/ha, Preemergence): 6
- Plant response rating, Wild oats (wild oat (Avena fatua); Rate 250 g/ha, Postemergence): 7
- Plant response rating, Wild oats (wild oat (Avena fatua); [19]): 7
